In BigSolDB 2.1:

CC(C)(OOC(C)(C)c1ccccc1)c1ccccc1
solubility (mole fraction) (in DMF, 274.15 K): 0.152
solubility (mole fraction) (in DMF, 278.15 K): 0.196
solubility (mole fraction) (in DMF, 282.15 K): 0.246
solubility (mole fraction) (in DMF, 286.15 K): 0.305
solubility (mole fraction) (in DMF, 290.15 K): 0.365
solubility (mole fraction) (in DMF, 294.15 K): 0.44
solubility (mole fraction) (in DMF, 298.15 K): 0.518
solubility (mole fraction) (in DMF, 302.15 K): 0.619
solubility (mole fraction) (in ethanol, 274.15 K): 0.0152
solubility (mole fraction) (in ethanol, 278.15 K): 0.0188
solubility (mole fraction) (in ethanol, 282.15 K): 0.0236
solubility (mole fraction) (in ethanol, 286.15 K): 0.0303
solubility (mole fraction) (in ethanol, 290.15 K): 0.0418
solubility (mole fraction) (in ethanol, 294.15 K): 0.0573
solubility (mole fraction) (in ethanol, 298.15 K): 0.0851
solubility (mole fraction) (in ethanol, 302.15 K): 0.142
solubility (mole fraction) (in isopropanol, 274.15 K): 0.0132
solubility (mole fraction) (in isopropanol, 278.15 K): 0.0168
solubility (mole fraction) (in isopropanol, 282.15 K): 0.0219
solubility (mole fraction) (in isopropanol, 286.15 K): 0.0291
solubility (mole fraction) (in isopropanol, 290.15 K): 0.0398
solubility (mole fraction) (in isopropanol, 294.15 K): 0.0567
solubility (mole fraction) (in isopropanol, 298.15 K): 0.0859
solubility (mole fraction) (in isopropanol, 302.15 K): 0.143
solubility (mole fraction) (in methanol, 274.15 K): 0.00668
solubility (mole fraction) (in methanol, 278.15 K): 0.00933
solubility (mole fraction) (in methanol, 282.15 K): 0.0118
solubility (mole fraction) (in methanol, 286.15 K): 0.0154
solubility (mole fraction) (in methanol, 290.15 K): 0.02
solubility (mole fraction) (in methanol, 294.15 K): 0.0283
solubility (mole fraction) (in methanol, 298.15 K): 0.0395
solubility (mole fraction) (in methanol, 302.15 K): 0.0602
solubility (mole fraction) (in n-butanol, 274.15 K): 0.0241
solubility (mole fraction) (in n-butanol, 278.15 K): 0.0317
solubility (mole fraction) (in n-butanol, 282.15 K): 0.0407
solubility (mole fraction) (in n-butanol, 286.15 K): 0.0541
solubility (mole fraction) (in n-butanol, 290.15 K): 0.07
solubility (mole fraction) (in n-butanol, 294.15 K): 0.0974
solubility (mole fraction) (in n-butanol, 298.15 K): 0.144
solubility (mole fraction) (in n-butanol, 302.15 K): 0.237
solubility (mole fraction) (in n-propanol, 274.15 K): 0.019
solubility (mole fraction) (in n-propanol, 278.15 K): 0.0253
solubility (mole fraction) (in n-propanol, 282.15 K): 0.0317
solubility (mole fraction) (in n-propanol, 286.15 K): 0.0425
solubility (mole fraction) (in n-propanol, 290.15 K): 0.0568
solubility (mole fraction) (in n-propanol, 294.15 K): 0.0783
solubility (mole fraction) (in n-propanol, 298.15 K): 0.118
solubility (mole fraction) (in n-propanol, 302.15 K): 0.194
solubility (mole fraction) (in sec-butanol, 274.15 K): 0.0161
solubility (mole fraction) (in sec-butanol, 278.15 K): 0.0208
solubility (mole fraction) (in sec-butanol, 282.15 K): 0.0275
solubility (mole fraction) (in sec-butanol, 286.15 K): 0.036
solubility (mole fraction) (in sec-butanol, 290.15 K): 0.0486
solubility (mole fraction) (in sec-butanol, 294.15 K): 0.0724
solubility (mole fraction) (in sec-butanol, 298.15 K): 0.107
solubility (mole fraction) (in sec-butanol, 302.15 K): 0.183
